Assay results as given in US11254688B2 (Boehringer Ingelheim International GmbH, priority 2018, dated 2022).

The compounds below were run against T1, hGOAT (Homo sapiens, UniProt Q96T53) (assay: Determination of hGOAT activity in HEK293 cells after incubation with test compound (acyl-ghrelin ELISA)). Conditions: HEK293 cells stably transfected with preproghrelin and human GOAT; octanoate-BSA 100 μM; 5 hours incubation; acyl-ghrelin in medium by ELISA; 8 compound concentrations.
T1 construct: expressed in transfected cells; host or cells: HEK293 (Hek293 hGOAT/PPGhrl Clone #1B8)
T1 sequence (Q96T53 1-435): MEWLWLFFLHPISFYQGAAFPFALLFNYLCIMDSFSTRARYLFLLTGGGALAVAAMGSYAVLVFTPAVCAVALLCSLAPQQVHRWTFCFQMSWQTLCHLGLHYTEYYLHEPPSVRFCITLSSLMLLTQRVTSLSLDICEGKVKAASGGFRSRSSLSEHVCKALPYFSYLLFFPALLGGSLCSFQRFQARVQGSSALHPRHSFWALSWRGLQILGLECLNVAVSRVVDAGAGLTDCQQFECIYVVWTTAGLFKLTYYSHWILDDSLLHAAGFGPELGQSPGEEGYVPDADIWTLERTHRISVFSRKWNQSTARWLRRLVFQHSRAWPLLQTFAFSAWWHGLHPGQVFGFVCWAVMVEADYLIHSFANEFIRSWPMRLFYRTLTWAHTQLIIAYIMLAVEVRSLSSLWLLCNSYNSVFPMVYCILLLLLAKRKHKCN
Assay type: cell-based
Protocol: Determination of hGOAT Activity in HEK293 Cells after Incubation with Test Compound
HEK293 cells stably transfected with two expression vectors, one coding for preproghrelin cDNA and a second for the expression of human GOATcDNA are used as a cellular model. After feeding the cells with octanoic acid for 5 hours, acyl-ghrelin is measured in cell culture medium by an ELISA procedure.
Cellline: Hek293 hGOAT/PPGhrl Clone #1B8Sodium octanoate, Sigma, Cat.-No. C5038
BD Poly-D-Lysin 384-well Plates, black-clear polystyrene BD Bioscience Cat.-No. […] ELISA human acylated Ghrelin Kit purchased from Bertin Pharman (detailed composition of buffers e.g. wash-puffer, ELISA buffer not known)
Cells are plated with a density of 5000 cells/well in 384-well poly-D-lysin plates and incubated for 1 day at 37° C., 5% CO2 in DMEM medium, 10% FCS, 1×NEAA, Puromycin (0.5 μg/ml) and G418 (1 mg/ml). Then the medium is changed to a identical medium without FCS and containing Octanoate-BSA (final concentration 100 μM each) and compound in DMSO (final DMSO concentration 0,3%). After incubation for 5 hours acylghrelin in the medium is measured by ELISA.
The medium sample is diluted 1:25 in Elisa buffer, a 25 μl aliquot is transferred to a 384-well ELISA plate previously washed 4 times with 100 μL wash buffer, and 25 μl tracer-solution is added. After incubation overnight (˜20 h) at 4° C. temperature the plate is washed 4 times with 100 μl wash-buffer per well. Finally 50 μl Ellman's reagent is added to each well and the plate is incubated in the dark for 20 minutes. The absorbance is measured at 405 nm in an Envision multilabel reader and the amount of acylated ghrelin is calculated according to a acylated ghrelin standard curve provided in the same plate.
The analysis of the data is performed by calculation of the percentage of acyl-ghrelin produced in the presence of test compound compared to the amount of acyl-ghrelin produced in the vehicle control samples. An inhibitor of the GOAT enzyme will give values between 100% CTL (no inhibition) and 0% CTL (complete inhibition).
IC50 values are calculated with Assay Explorer or other suited software based on curve fitting of results of 8 different compound concentrations.

How did the IC50 turn out when Cc1nc2nonc2c(N)c1Cc1ccc(C#N)c(OCC(F)F)c1 [Compound 21.2, 4-({7-Amino-5-methyl-[1,2,5]oxadiazolo[3,4-b]pyridin-6-yl}methyl)-2-(2,2-difluoroethoxy)benzonitrile] was run?
Its IC50 is 0.176 nM.

Cc1nc2nonc2c(N)c1Cc1ccc(-c2c(C)noc2C)nc1 [Compound 12.6, 6-{[6-(3,5-Dimethyl-1,2-oxazol-4-yl)pyridin-3-yl]methyl}-5-methyl-[1,2,5]oxadiazolo[3,4-b]pyridin-7-amine] was tested. Which IC50 did it give?
The IC50 was 0.402 nM.

For Cc1nc2nonc2c(N)c1Cc1ccc(C#N)nc1 [Compound 4.6, 5-({7-Amino-5-methyl-[1,2,5]oxadiazolo[3,4-b]pyridin-6-yl}methyl)pyridine-2-carbonitrile], which IC50 is on record?
Its IC50 is 3.1 nM.

Which IC50 does the source give for Cc1nc2nonc2c(N)c1Cc1ccc2nn(C)cc2c1 [Compound 4.34, 5-Methyl-6-[(2-methyl-2H-indazol-5-yl)methyl]-[1,2,5]oxadiazolo[3,4-b]pyridin-7-amine] here?
Its IC50 is 1.4 nM.

Which IC50 does the source give for Nc1c(Cc2ccc(F)cc2)c(Cl)nc2nonc12 [Compound 23.5, 5-Chloro-6-[(4-fluorophenyl)methyl]-[1,2,5]oxadiazolo[3,4-b]pyridin-7-amine] here?
Its IC50 is 0.737 nM.

How did the IC50 turn out when COc1cc(Cc2c(Cl)nc3nonc3c2N)ccc1C#N [Compound 23.7, 4-({7-Amino-5-chloro-[1,2,5]oxadiazolo[3,4-b]pyridin-6-yl}methyl)-2-methoxybenzonitrile] was run?
Its IC50 is 0.178 nM.

For Cc1nc2nonc2c(N)c1Cc1ccc(C2(C(=O)O)CC2)nc1 [Compound 19.2, 1-[5-({7-Amino-5-methyl-[1,2,5]oxadiazolo[3,4-b]pyridin-6-yl}methyl)pyridin-2-yl]cyclopropane-1-carboxylic Acid], which IC50 is on record?
The IC50 was 8.42 nM.

Which IC50 does the source give for Cc1nc2nonc2c(N)c1Cc1ccc(C(=O)Nc2cn(C)nc2C(F)(F)F)cc1 [Compound 14.7, 4-({7-Amino-5-methyl-[1,2,5]oxadiazolo[3,4-b]pyridin-6-yl}methyl)-N-[1-methyl-3-(trifluoromethyl)-1H-pyrazol-4-yl]benzamide] here?
The IC50 was 1.83 nM.

How did the IC50 turn out when Cc1nc2nonc2c(N)c1Cc1ccc(C(F)F)nc1 [Compound 4.30, 6-{[6-(Difluoromethyl)pyridin-3-yl]methyl}-5-methyl-[1,2,5]oxadiazolo[3,4-b]pyridin-7-amine] was run?
Its IC50 is 1.39 nM.

How did the IC50 turn out when Cc1nc2nonc2c(N)c1Cc1ccc(C(=O)NCc2cnn(C)c2)cc1 [Compound 14.11, 4-({7-Amino-5-methyl-[1,2,5]oxadiazolo[3,4-b]pyridin-6-yl}methyl)-N-[(1-methyl-1H-pyrazol-4-yl)methyl]benzamide] was run?
Its IC50 is 4.16 nM.

For Cc1nc2nonc2c(N)c1Cc1ccc(Br)cc1 [Compound 1.1, 6-[(4-Bromophenyl)methyl]-5-methyl-[1,2,5]oxadiazolo[3,4-b]pyridin-7-amine], which IC50 is on record?
The IC50 was 0.225 nM.

For Cc1nc2nonc2c(N)c1Cc1cnc(C(F)(F)F)c(C#N)c1 [Compound 4.60, 5-({7-Amino-5-methyl-[1,2,5]oxadiazolo[3,4-b]pyridin-6-yl}methyl)-2-(trifluoromethyl)pyridine-3-carbonitrile], which IC50 is on record?
The IC50 was 6.74 nM.

With Cc1nc2nonc2c(N)c1Cc1ccc(C2(C#N)CCOCC2)nc1 [Compound 4.27, 4-[5-({7-Amino-5-methyl-[1,2,5]oxadiazolo[3,4-b]pyridin-6-yl}methyl)pyridin-2-yl]oxane-4-carbonitrile] as the compound, how does the IC50 read?
The IC50 was 1.65 nM.

Cc1nc2nonc2c(N)c1Cc1cccc(C#N)c1 [Compound 4.36, 3-(7-Amino-5-methyl-[1,2,5]oxadiazolo[3,4-b]pyridin-6-ylmethyl)-benzonitrile] was tested. Which IC50 did it give?
The IC50 was 5.8 nM.

With Cc1nc2nonc2c(N)c1Cc1ccc2nccn2c1 [Compound 4.20, 6-Imidazo[1,2-a]pyridin-6-ylmethyl-5-methyl-[1,2,5]oxadiazolo[3,4-b]pyridin-7-ylamine] as the compound, how does the IC50 read?
The IC50 was 5.51 nM.

Cc1nc2nonc2c(N)c1Cc1ccc(Cl)nc1 [Compound 4.18, 6-[(6-Chloropyridin-3-yl)methyl]-5-methyl-[1,2,5]oxadiazolo[3,4-b]pyridin-7-amine] was tested. Which IC50 did it give?
The IC50 was 1.65 nM.

Cc1nc2nonc2c(N)c1Cc1ccc(Br)nc1 [Compound 4.29, 6-[(6-Bromopyridin-3-yl)methyl]-5-methyl-[1,2,5]oxadiazolo[3,4-b]pyridin-7-amine] was tested. Which IC50 did it give?
The IC50 was 1.27 nM.

For Nc1c(Cc2ccc(C(F)(F)F)cc2)c(C(F)(F)F)nc2nonc12 [Compound 9.1, 5-(Trifluoromethyl)-6-{[4-(trifluoromethyl)phenyl]methyl}-[1,2,5]oxadiazolo[3,4-b]pyridin-7-amine], which IC50 is on record?
Its IC50 is 9.47 nM.

With Cc1nc2nonc2c(N)c1Cc1ccc(O)cc1 [Compound 10.1, 4-(7-Amino-5-methyl-[1,2,5]oxadiazolo[3,4-b]pyridin-6-ylmethyl)-phenol] as the compound, how does the IC50 read?
Its IC50 is 0.594 nM.

How did the IC50 turn out when COC(=O)c1cn2cc(Cc3c(C)nc4nonc4c3N)ccc2n1 [Compound 4.23, Methyl 6-({7-amino-5-methyl-[1,2,5]oxadiazolo[3,4-b]pyridin-6-yl}methyl)imidazo[1,2-a]pyridine-2-carboxylate] was run?
Its IC50 is 7.76 nM.

How did the IC50 turn out when Nc1c(Cc2ccc(OC(F)(F)F)cc2)c(Cl)nc2nonc12 [Compound 23.3, 5-Chloro-6-{[4-(trifluoromethoxy)phenyl]methyl}-[1,2,5]oxadiazolo[3,4-b]pyridin-7-amine] was run?
The IC50 was 0.298 nM.

CNC(=O)c1cc(Cc2c(C)nc3nonc3c2N)ccc1Cl [Compound 15.4, 5-({7-Amino-5-methyl-[1,2,5]oxadiazolo[3,4-b]pyridin-6-yl}methyl)-2-chloro-N-methylbenzamide] was tested. Which IC50 did it give?
Its IC50 is 0.933 nM.

With COc1cc(C(F)(F)F)ccc1Cc1c(C)nc2nonc2c1N [Compound 2.2, 6-{[2-Methoxy-4-(trifluoromethyl)phenyl]methyl}-5-methyl-[1,2,5]oxadiazolo[3,4-b]pyridin-7-amine] as the compound, how does the IC50 read?
The IC50 was 0.066 nM.

With Cc1nc2nonc2c(N)c1Cc1ccc(-c2ccnn2C)n2cnnc12 [Compound 12.13, 5-Methyl-6-[5-(2-methyl-2H-pyrazol-3-yl)-[1,2,4]triazolo[4,3-a]pyridin-8-ylmethyl]-[1,2,5]oxadiazolo[3,4-b]pyridin-7-ylamine] as the compound, how does the IC50 read?
Its IC50 is 2.79 nM.

With Cc1nc2nonc2c(N)c1Cc1ccc(OC2CCC2)nc1 [Compound 4.17, 6-[(6-Cyclobutoxypyridin-3-yl)methyl]-5-methyl-[1,2,5]oxadiazolo[3,4-b]pyridin-7-amine] as the compound, how does the IC50 read?
The IC50 was 0.371 nM.

How did the IC50 turn out when Cc1nc2nonc2c(N)c1Cc1ccc(C2(C#N)CCCC2)nc1 [Compound 4.26, 1-[5-({7-Amino-5-methyl-[1,2,5]oxadiazolo[3,4-b]pyridin-6-yl}methyl)pyridin-2-yl]cyclopentane-1-carbonitrile] was run?
Its IC50 is 0.098 nM.

COc1cc(Cc2c(Cl)nc3nonc3c2N)ccc1Br [Compound 23.6, 6-[(4-Bromo-3-methoxyphenyl)methyl]-5-chloro-[1,2,5]oxadiazolo[3,4-b]pyridin-7-amine] was tested. Which IC50 did it give?
The IC50 was 0.078 nM.

Which IC50 does the source give for Cc1nc2nonc2c(N)c1Cc1ccc(C(N)=O)cc1 [Compound 14.1, 4-({7-Amino-5-methyl-[1,2,5]oxadiazolo[3,4-b]pyridin-6-yl}methyl)benzamide] here?
The IC50 was 6.29 nM.

Which IC50 does the source give for Cc1nc2nonc2c(N)c1Cc1ccc(SC(F)(F)F)cc1 [Compound 4.32, 5-Methyl-6-({4-[(trifluoromethyl)sulfanyl]phenyl}methyl)-[1,2,5]oxadiazolo[3,4-b]pyridin-7-amine] here?
The IC50 was 0.064 nM.

Which IC50 does the source give for Cc1nc2nonc2c(N)c1Cc1ccc(C#N)c(OCCC(F)(F)F)c1 [Compound 21.4, 4-({7-Amino-5-methyl-[1,2,5]oxadiazolo[3,4-b]pyridin-6-yl}methyl)-2-(3,3,3-trifluoropropoxy)benzonitrile] here?
The IC50 was 0.786 nM.

For Cc1nc2nonc2c(N)c1Cc1ccc(I)cc1 [Compound 1.4, 6-[(4-Iodophenyl)methyl]-5-methyl-[1,2,5]oxadiazolo[3,4-b]pyridin-7-amine], which IC50 is on record?
The IC50 was 0.127 nM.

With Cc1nc2nonc2c(N)c1Cc1ccc(CO)cc1 [Compound 17.1, [4-({7-Amino-5-methyl-[1,2,5]oxadiazolo[3,4-b]pyridin-6-yl}methyl)phenyl]methanol] as the compound, how does the IC50 read?
Its IC50 is 0.726 nM.
